From patent publication US8716284B2, “Adamantyl diamide derivatives and uses of same” (H. Lundbeck A/S, priority 2008, dated 2014) come the findings set out here.

The assay deals with T1, rat metabotropic glutamate receptor 5 (mGluR5) (Rattus norvegicus, UniProt P31424).
T1 construct: expressed in transfected cells; host or cells: HEK 293
The experiment in a line: Calcium mobilization assay (FLIPR) for negative or positive allosteric activity, HEK 293 cells. To be noted: HEK293, negative allosteric modulation, inhibition of EC80 glutamate response; read-out: FLIPR maximum inhibition. It is filed as cell-based. As for the experimental part:
The cDNA for rat metabotropic glutamate receptor 5 (mGluR5) was a generous gift from S. Nakanishi (Kyoto University, Kyoto, Japan). The mGluR5 was stably expressed in a HEK 293 cell line and grown in Dulbecco's Modified Eagle Medium (DMEM) (Invitrogen, Carlsbad, Calif.) with supplements (10% bovine calf serum, 4 mM glutamine, 100 units/mL penicillin, 100 μg/mL streptomycin and 0.75 mM G1418) at 37° C., 5% CO2. Twenty-four hours prior to assay, cells were seeded into 384-well black wall microtiter plates coated with poly-D-lysine. Just prior to assay, media was aspirated and cells dye-loaded (25 μL/well) with 3 μM Fluo-4/0.01% pluronic acid in assay buffer (Hank's Balanced Saline Solution (HBSS)): 150 mM NaCl, 5 mM KCl, 1 mM CaCl2, 1 mM MgCl2, plus 20 mM N-2-Hydroxyethylpiperazine-N′-2-ethanesulfonic acid (HEPES), pH 7.4, 0.1% bovine serum albumin (BSA) and 2.5 mM probenicid) for 1 hour in 5% CO2 at 37° C. After excess dye was discarded, cells were washed in assay buffer and layered with a final volume equal to 30 μL/well. Basal fluorescence is monitored in a fluorometric imaging plate reader (FLIPR) (Molecular Devices, Sunnyvale, Calif.) with an excitation wavelength of 488 nm and an emission range of 500 to 560 nm. Laser excitation energy was adjusted so that basal fluorescence readings were approximately 10,000 relative fluorescent units. Cells were stimulated with an EC20 or an EC80 concentration of glutamate in the presence of a compound to be tested, both diluted in assay buffer, and relative fluorescent units were measured at defined intervals (exposure=0.6 sec) over a 3 min period at room temperature. Basal readings derived from negative controls were subtracted from all samples. Maximum change in fluorescence was calculated for each well. Concentration-response curves derived from the maximum change in fluorescence were analyzed by nonlinear regression (Hill equation). A negative modulator can be identified from these concentration-response curves if a compound produces a concentration dependent inhibition of the EC80 glutamate response. […] Examples 11-163 also were tested in the above assay.
A positive modulator can be identified from these concentration-response curves if a compound produces a concentration dependent increase in the EC20 glutamate response.
On the technique in general: Calcium flux is commonly read through the fluorescence of an indicator in the cells.

T1 sequence (P31424 21-1171 isoform P31424-2 limits assumed): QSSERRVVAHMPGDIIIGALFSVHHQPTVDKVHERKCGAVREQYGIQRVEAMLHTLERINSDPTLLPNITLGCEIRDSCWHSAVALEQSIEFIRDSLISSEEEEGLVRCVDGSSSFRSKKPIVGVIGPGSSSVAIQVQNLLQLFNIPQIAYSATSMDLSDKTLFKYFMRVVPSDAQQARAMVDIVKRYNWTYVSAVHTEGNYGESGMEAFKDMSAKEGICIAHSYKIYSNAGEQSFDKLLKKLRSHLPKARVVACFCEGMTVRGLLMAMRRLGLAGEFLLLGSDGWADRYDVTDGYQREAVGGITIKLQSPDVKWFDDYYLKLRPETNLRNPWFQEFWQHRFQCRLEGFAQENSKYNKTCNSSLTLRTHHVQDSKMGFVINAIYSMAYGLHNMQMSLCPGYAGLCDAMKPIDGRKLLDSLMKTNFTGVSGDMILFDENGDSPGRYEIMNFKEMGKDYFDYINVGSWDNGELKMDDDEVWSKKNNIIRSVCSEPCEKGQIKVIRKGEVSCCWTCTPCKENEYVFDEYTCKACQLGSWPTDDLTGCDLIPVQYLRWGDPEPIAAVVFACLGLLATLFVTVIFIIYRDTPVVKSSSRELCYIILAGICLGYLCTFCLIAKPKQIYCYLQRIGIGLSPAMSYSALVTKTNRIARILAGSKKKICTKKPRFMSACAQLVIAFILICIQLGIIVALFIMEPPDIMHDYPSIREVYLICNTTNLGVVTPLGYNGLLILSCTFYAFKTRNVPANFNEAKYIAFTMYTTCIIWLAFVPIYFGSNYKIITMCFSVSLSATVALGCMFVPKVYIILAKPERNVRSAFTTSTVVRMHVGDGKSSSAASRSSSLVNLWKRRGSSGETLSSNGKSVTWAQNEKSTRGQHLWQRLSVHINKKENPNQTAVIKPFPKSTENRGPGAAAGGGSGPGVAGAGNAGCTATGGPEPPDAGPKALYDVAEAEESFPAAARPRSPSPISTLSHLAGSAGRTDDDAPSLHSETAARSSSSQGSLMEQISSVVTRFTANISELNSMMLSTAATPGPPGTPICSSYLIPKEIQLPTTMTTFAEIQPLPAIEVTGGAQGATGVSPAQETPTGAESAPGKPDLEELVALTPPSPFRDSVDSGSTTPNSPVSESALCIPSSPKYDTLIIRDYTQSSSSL

For the compound `COc1ccnc(C(=O)NC23CC4CC(C2)CC(NC(=O)c2cncc(C)n2)(C4)C3)c1` [Example 153, 6-Methyl-pyrazine-2-carboxylic acid {3-[(4-methoxy-pyridine-2-carbonyl)-amino]-adamantan-1-yl}-amide], the Emax was in the range of 70 to 99%.
Regarding `Cc1cncc(C(=O)NC23CC4CC(CC(NC(=O)c5cccc(OC(F)F)c5)(C4)C2)C3)n1` [Example 162, 6-Methyl-pyrazine-2-carboxylic acid [3-(3-difluoro-methoxy-benzoylamino)-adamantan-1-yl]-amide], the Emax was in the range of 70 to 99%.
Turning to `Cc1cncc(C(=O)NC23CC4CC(C2)CC(NC(=O)c2cccc(F)n2)(C4)C3)n1` [Example 164, 6-Methyl-pyrazine-2-carboxylic acid {3-[(6-fluoro-pyridine-2-carbonyl)-amino]-adamantan-1-yl}-amide], the Emax is 63 to 99%.
`O=C(NC12CC3CC(C1)CC(NC(=O)c1cn4ccccc4n1)(C3)C2)c1ccccn1` [Example 88, Imidazo[1,2-a]pyridine-2-carboxylic acid {3-[(pyridine-2-carbonyl)-amino]-adamantan-1-yl}-amide]: the Emax lay within 63 to 99%.
The same measure for `CC(C)(C)OC(=O)N1CCc2cc(C(=O)NC34CC5CC(C3)CC(NC(=O)c3ccccn3)(C5)C4)ccc2C1` [Example 70, 6-{3-[(Pyridine-2-carbonyl)-amino]-adamantan-1-yl-carbamoyl}-3,4-dihydro-1H-isoquinoline-2-carboxylic acid tert-butyl ester]: 63 to 99%; for `CNC(=O)c1cccc(C(=O)NC23CC4CC(CC(NC(=O)c5ccccn5)(C4)C2)C3)n1` [Example 64, Pyridine-2,6-dicarboxylic acid 2-methylamide 6-({3-[(pyridine-2-carbonyl)-amino]-adamantan-1-yl}-amide)]: 63 to 99%; for `Cc1cccc(C(=O)NC23CC4CC(C2)CC(NC(=O)c2cccc(N5CCOCC5)n2)(C4)C3)n1` [Example 22, 6-Morpholin-4-yl-pyridine-2-carboxylic acid-{3-[(6-methyl-pyridine-2-carbonyl)-amino]-adamantan-1-yl}-amide]: 63 to 99%.
For `O=C(NC12CC3CC(C1)CC(NC(=O)c1cccc(N4CCC[C@H]4CO)n1)(C3)C2)c1cccc(F)c1` [Example 249, 6-((S)-2-Hydroxymethyl-pyrrolidin-1-yl)-pyridine-2-carboxylic acid [3-(3-fluoro-benzoylamino)-adamantan-1-yl]-amide] the value was 63 to 99%; for `Cc1cc(C(=O)NC23CC4CC(CC(NC(=O)c5ccccn5)(C4)C2)C3)on1` [Example 78, Pyridine-2-carboxylic acid {3-[(3-methyl-isoxazole-5-carbonyl)-amino]-adamantan-1-yl}-amide], 63 to 99%; for `O=C(NC12CC3CC(C1)CC(NC(=O)c1ccc4[nH]ccc4n1)(C3)C2)c1ccccn1` [Example 66, 1H-Pyrrolo[3,2-b]pyridine-5-carboxylic acid {3-[(pyridine-2-carbonyl)-amino]-adamantan-1-yl}-amide], 63 to 99%.
For `Cc1cccc(C(=O)NC23CC4CC(CC(NC(=O)c5cc(O)ccn5)(C4)C2)C3)n1` [Example 132, 6-Methyl-pyridine-2-carboxylic acid {3-[(4-hydroxy-pyridine-2-carbonyl)-amino]-adamantan-1-yl}-amide] the value was 70 to 99%; for `Cc1cccc(C(=O)NC23CC4CC(CC(NC(=O)c5cccnn5)(C4)C2)C3)n1` [Example 24, Pyridazine-3-carboxylic acid {3-[(6-methyl-pyridine-2-carbonyl)-amino]-adamantan-1-yl}-amide], 63 to 99%.
Take `CC(=O)NCCNc1cccc(C(=O)NC23CC4CC(CC(NC(=O)c5ccccn5)(C4)C2)C3)n1` [Example 223, 6-(2-Acetylamino-ethylamino)-pyridine-2-carboxylic acid {3-[(pyridine-2-carbonyl)-amino]-adamantan-1-yl}-amide]: the Emax was in the range of 63 to 99%.
For `Cc1ccnc(C(=O)NC23CC4CC(CC(NC(=O)c5ccncn5)(C4)C2)C3)n1` [Example 194, 4-Methyl-pyrimidine-2-carboxylic acid {3-[(pyrimidine-4-carbonyl)-amino]-adamantan-1-yl}-amide] the value was 63 to 99%; for `O=C(NC12CC3CC(C1)CC(NC(=O)c1cccc(N4CCC(O)CC4)n1)(C3)C2)c1ccccn1` [Example 200, 4-Hydroxy-3,4,5,6-ttrahydro-2H-[1,2′]bipyridinyl-6′-carboxylic acid {3-[(pyridine-2-carbonyl)-amino]-adamantan-1-yl}-amide], 63 to 99%.
For `CN(C)CCNc1cccc(C(=O)NC23CC4CC(CC(NC(=O)c5ccccn5)(C4)C2)C3)n1` [Example 222, 6-(2-Dimethylamino-ethylamino)-pyridine-2-carboxylic acid {3-[(pyridine-2-carbonyl)-amino]-adamantan-1-yl}-amide] the value was 63 to 99%.
For `NC(=O)[C@@H]1CCCN1c1cccc(C(=O)NC23CC4CC(CC(NC(=O)c5cccc(F)c5)(C4)C2)C3)n1` [Example 251, 6-((S)-2-Carbamoyl-pyrrolidin-1-yl)-pyridine-2-carboxylic acid [3-(3-fluoro-benzoylamino)-adamantan-1-yl]-amide] the value was 63 to 99%.
On to `Cc1cccc(C(=O)NC23CC4CC(C2)CC(NC(=O)c2cccc(C)c2)(C4)C3)c1` [Example 16, N,N′-(1,3-adamantylene)bis(3-menthylbenzamide)], for which the Emax was in the range of 63 to 99%.
The same measure for `O=C(NC12CC3CC(C1)CC(NC(=O)c1ccccn1)(C3)C2)c1cccc(F)c1` [Example 59, Pyridine-2-carboxylic acid [3-(3-fluoro-benzoylamino)-adamantan-1-yl]-amide]: 63 to 99%; for `O=C(NC12CC3CC(C1)CC(NC(=O)c1cc(F)ccn1)(C3)C2)c1ccccn1` [Example 108, 4-Fluoro-pyridine-2-carboxylic acid{3-[(pyridine-2-carbonyl)-amino]-adamantan-1-yl}-amide]: 70 to 99%.
For `O=C(NC12CC3CC(C1)CC(NC(=O)c1cccc(F)c1)(C3)C2)c1cccc(F)c1` [Example 15, N,N′-(1,3-adamantylene)bis(3-fluorobenzamide)] the value was 63 to 99%; for `Cc1ccc2nc(C(=O)NC34CC5CC(CC(NC(=O)c6cccc(F)c6)(C5)C3)C4)cn2c1` [Example 102, 6-Methyl-imidazo[1,2-a]pyridine-2-carboxylic acid [3-(3-fluoro-benzoylamino)-adamantan-1-yl]-amide], 63 to 99%; for `Cc1cncc(C(=O)NC23CC4CC(C2)CC(NC(=O)c2ccnc(C)n2)(C4)C3)n1` [Example 173, 2-Methyl-pyrimidine-4-carboxylic acid {3-[(6-methyl-pyrazine-2-carbonyl)-amino]-adamantan-1-yl}-amide], 63 to 99%.
As to `O=C(NC12CC3CC(C1)CC(NC(=O)c1cnc4ccccc4n1)(C3)C2)c1cnc2ccccc2n1` [Example 13, N,N′-(1,3-adamantylene)bis(quinoxaline-2-carboxamide)], the Emax is 63 to 99%.
The same measure for `Cc1cccc(C(=O)NC23CC4CC(CC(NC(=O)c5ccncc5)(C4)C2)C3)n1` [Example 116, 6-Methyl-pyridine-2-carboxylic acid {3-[(pyridine-4-carbonyl)-amino]-adamantan-1-yl}-amide]: 70 to 99%; for `CN(C)CCCNc1cccc(C(=O)NC23CC4CC(CC(NC(=O)c5ccccn5)(C4)C2)C3)n1` [Example 226, 6-(3-Dimethylamino-propylamino)-pyridine-2-carboxylic acid {3-[(pyridine-2-carbonyl)-amino]-adamantan-1-yl}-amide]: 63 to 99%.
The same measure for `O=C(NC12CC3CC(C1)CC(NC(=O)c1cn4cc(Cl)ccc4n1)(C3)C2)c1ccccn1` [Example 86, 6-Chloro-imidazo[1,2-a]pyridine-2-carboxylic acid {3-[(pyridine-2-carbonyl)-amino]-adamantan-1-yl}-amide]: 63 to 99%.
The same measure for `Cc1cncc(C(=O)NC23CC4CC(C2)CC(NC(=O)c2cc(Cl)ccc2F)(C4)C3)n1` [Example 161, 6-Methyl-pyrazine-2-carboxylic acid [3-(5-chloro-2-fluoro-benzoylamino)-adamantan-1-yl]-amide]: 70 to 99%; for `Cc1cccc(C(=O)NC23CC4CC(CC(NC(=O)c5ccc(F)cn5)(C4)C2)C3)n1` [Example 137, 5-Fluoro-pyridine-2-carboxylic acid {3-[(6-methyl-pyridine-2-carbonyl)-amino]-adamantan-1-yl}-amide]: 70 to 99%.
